The values below are quoted from earlier work in patent US11903920B2, “Cannabinoid formulation: production method and use” (CHIROSYN DISCOVERY TECHNOLOGIES INC., priority 2022, dated 2024).

The conditions of this data set: depending on the method and route of administration.

Take `C=C(C)[C@@H]1CCC(C)=C[C@H]1c1c(O)cc(CCCCC)cc1O` [CBD, 2-[1R-3-methyl-6R-(1-methylethenyl)-2-cyclohexen-1-yl]-5-pentyl-1,3-benzenediol]: the Half-life is 1.4 to 120 h.
